Laboratory results published in patent US20250099407A1, “2-AMINO BENZOPHENONE DERIVATIVES FOR TARGETED FERROPTOSIS INDUCTION IN CANCER THERAPY” (INDIAN INSTITUTE OF TECHNOLOGY KANPUR, priority 2023, published 2025).

How the values were obtained:
A375 = assay: Cell viability, CellTiter-Glo assay, A375; assay type: cell-based; settings: Homo sapiens, A-375
Procedure: (§1) The viability of screened cancer cells was recorded using a luminescence-based CellTiter-Glo® assay for the ATP quantification. The screening concentration of the molecule ranged from 100/10 μM to 45/4.5 nM with an 8-point-3-fold dilution series in DMEM media (>0.1% DMSO as control). Each experiment was conducted in more than two biological replicates with three technical replicates. The error bar is a representation of standard deviation among the technical replicates.
as §1, with “IITK3002” for “the molecule”, “10” for “100/10”, “4.5” for “45/4.5”
a. […] In parallel, we have also synthesized the bromoacetamide (IITK3002) version of the lead molecules which is slightly more reactive with thiol nucleophiles when compared to chlorooacetamide warheads as depicted in FIG. 13. […] In addition, we also evaluated the molecules' antiproliferative potency against a panel of twelve different cancer phenotypes. […]

4T1 cells = assay: Combination cell viability experiments in 4T1 cells; assay type: cell-based; settings: 4T1, Ferrostain-1 10 μM
Procedure: FIG. 14 depicts a combination experiment indicates the involvement of thiol modulation by IITK3001/IITK3002 on the viability of Huh-7 and 4T1 cells, in accordance with an embodiment of the present invention. The viability of screened cancer cells was recorded using a luminescence-based CellTiter-Glo® assay for the ATP quantification. The screening concentration of (a) IITK3001 and (b) IITK3002 ranged from 10 uM to 4.5 nM with an 8-point-3-fold dilution series in DMEM medium (>0.1% DMSO as control). For combination experiments, 500 μM of NAC or glutathione and 25 μM of BSO were used. Each experiment was conducted in more than two biological replicates with three technical replicates. The error bar is a representation of standard deviation among the technical replicates.
FIG. 17 depicts IITK3001-mediated ferroptosis induction as a cell death mechanism in 4T1 cells is recorded, in accordance with an embodiment of the present invention. The screening concentration of (a) IITK3001 and (b) IITK3002 ranged from 10 μM to 4.5 nM with an 8-point-3-fold dilution series. […]
FIG. 19 depicts IITK3001-mediated ferroptosis induction as a cell death mechanism in 4T1 cells is recorded, in accordance with an embodiment of the present invention. […]

Structure (SMILES): CN(C(=O)CCl)c1ccccc1C(=O)c1ccccc1 [IITK3001, N-(2-benzoylphenyl)-2-chloro-N-methylacetamide]
- EC50 (A375): 352 nM
- effect of Fer-1 combination in 4T1 cells (4T1 cells): negligible
